These compounds were tested against T1, β-kinase domain of the human insulin receptor (CKD) (Homo sapiens, UniProt P06213) (assay: 32P-Cytoplasmic Kinase Domain (CKD) autophosphorylation assay). Conditions: 32P incorporated into CKD band, percentage of the vehicle (DMSO) level; 10 minutes at room temperature; compound concentration not given.
T1 construct: The complete β-kinase domain of the human insulin receptor (CKD); made in house
Assay type: biochemical
Procedure: The complete β-kinase domain of the human insulin receptor (CKD) was expressed in, and purified from, baculovirus. CKD (4.0 μg/mL), in a solution of 50 mM Tris.HCl, 2 mM MnCl2, 10 mM MgCl2 (50 μl final volume), was combined with […] ATP, and 5 μCi ^32P-ATP (3000 Ci/mmol.). A test compound, or the vehicle (DMSO), was added to a final DMSO concentration of 1%. The mixture was incubated for 10 minutes at room temperature. The reaction was terminated by the addition of 10 μl of 200 mM EDTA. A 30 μl volume was removed, mixed with 5 μl of 6×Laemmeli sodium dodecyl sulfate (SDS) treatment buffer, and heated to 94° C. for 5 minutes. A 20 μl aliquot was then run on an SDS-PAGE gel. The radioactivity incorporated into the CKD band is quantified by phosphorimaging of the gel, or scintillation counting of the excised bands.
The potency of a compound for increasing phosphorylation is expressed as a percentage of the vehicle level.

T1 sequence (P06213 980-1382 limits assumed): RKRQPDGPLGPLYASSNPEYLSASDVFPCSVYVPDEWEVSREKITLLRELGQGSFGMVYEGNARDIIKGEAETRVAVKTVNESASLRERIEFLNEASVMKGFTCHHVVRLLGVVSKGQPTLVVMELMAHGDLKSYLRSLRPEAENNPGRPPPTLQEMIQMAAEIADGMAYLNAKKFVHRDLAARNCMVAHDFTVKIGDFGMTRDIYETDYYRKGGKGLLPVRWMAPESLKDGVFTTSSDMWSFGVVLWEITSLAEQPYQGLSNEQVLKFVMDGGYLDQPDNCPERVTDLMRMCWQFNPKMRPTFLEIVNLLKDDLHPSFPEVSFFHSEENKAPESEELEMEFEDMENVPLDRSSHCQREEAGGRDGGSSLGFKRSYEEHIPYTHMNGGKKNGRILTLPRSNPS

Row | Activity (% Control) | SMILES
1 | 88.6 | O=C(Nc1cc(C(=O)Nc2cccc3cc(S(=O)(=O)O)ccc23)cc(C(=O)Nc2cccc3cc(S(=O)(=O)O)ccc23)c1)c1ccc(F)cc1 [Compound 12, 5-({3-[(4-fluorophenyl)carbonylamino]-5-[N-(6-sulfonaphthyl)carbamoyl]phenyl}carbonylamino)naphthalene-2-sulfonic acid]
2 | 81.7 | O=C(Nc1cc(C(=O)Nc2cccc3cc(S(=O)(=O)O)ccc23)cc(C(=O)Nc2cccc3cc(S(=O)(=O)O)ccc23)c1)c1ccc([N+](=O)[O-])cc1 [Compound 14, 5-({3-[(4-nitrophenyl)carbonylamino]-5-[N-(6-sulfonaphthyl)carbamoyl]phenyl}carbonylamino)naphthalene-2-sulfonic acid]
3 | 84.9 | O=C(Nc1cccc2cc(S(=O)(=O)O)ccc12)c1cc(NC(=O)c2c(Cl)ccc(Cl)c2C(=O)O)cc(C(=O)Nc2cccc3cc(S(=O)(=O)O)ccc23)c1 [Compound 20]
4 | 89.6 | O=C(Nc1cc(C(=O)Nc2cccc3cc(S(=O)(=O)O)ccc23)cc(C(=O)Nc2cccc3cc(S(=O)(=O)O)ccc23)c1)c1ccc2ccccc2c1 [Compound 24, 5-({3-(2-naphthylcarbonylamino)-5-[N-(6-sulfonaphthyl)carbamoyl]phenyl}carbonylamino)naphthalene-2-sulfonic acid]
5 | 83.7 | O=C(Nc1cccc2cc(S(=O)(=O)O)ccc12)c1cc(NC(=O)c2cccc3ccccc23)cc(C(=O)Nc2cccc3cc(S(=O)(=O)O)ccc23)c1 [Compound 25, 5-({3-(1-naphthylcarbonylamino)-5-[N-(6-sulfonaphthyl)carbamoyl]phenyl}carbonylamino)naphthalene-2-sulfonic acid]
6 | 91.4 | N[C@@H](CC(=O)O)C(=O)Nc1cc(C(=O)Nc2cccc3cc(S(=O)(=O)O)ccc23)cc(C(=O)Nc2cccc3cc(S(=O)(=O)O)ccc23)c1 [Compound 26, (3S)-3-amino-3-(N-{3,5-bis[N-(6-sulfonaphthyl)carbamoyl]phenyl}carbamoyl)propanoic acid]
7 | 161.2 | O=C(O)CC(C(=O)Nc1cc(C(=O)Nc2cccc3cc(S(=O)(=O)O)ccc23)cc(C(=O)Nc2cccc3cc(S(=O)(=O)O)ccc23)c1)c1ccccc1 (stereo not shown) [Compound 27, 3-(N-{3,5-bis[N-(6-sulfonaphthyl)carbamoyl]phenyl}carbamoyl)-3-phenylpropanoic acid]
8 | 84.6 | O=C(CC(C(=O)O)c1ccccc1)Nc1cc(C(=O)Nc2cccc3cc(S(=O)(=O)O)ccc23)cc(C(=O)Nc2cccc3cc(S(=O)(=O)O)ccc23)c1 (stereo not shown) [Compound 28, 3-(N-{3,5-bis[N-(6-sulfonaphthyl)carbamoyl]phenyl}carbamoyl)-2-phenylpropanoic acid]
9 | 75.6 | O=C(Nc1cccc2cc(S(=O)(=O)O)ccc12)c1cc(NC(=O)c2ccccc2S(=O)(=O)O)cc(C(=O)Nc2cccc3cc(S(=O)(=O)O)ccc23)c1 [Compound 29, 5-({5-[N-(6-sulfonaphthyl)carbamoyl]-3-[(2-sulfophenyl)carbonylamino]phenyl}carbonylamino)naphthalene-2-sulfonic acid]
10 | 84.1 | O=C(O)c1cccc(C(=O)Nc2cc(C(=O)Nc3cccc4cc(S(=O)(=O)O)ccc34)cc(C(=O)Nc3cccc4cc(S(=O)(=O)O)ccc34)c2)c1 [Compound 30, 3-(N-{3,5-bis[N-(6-sulfonaphthyl)carbamoyl]phenyl}carbamoyl)benzoic acid]
11 | 159.2 | O=C(O)c1ccc(C(=O)Nc2cc(C(=O)Nc3cccc4cc(S(=O)(=O)O)ccc34)cc(C(=O)Nc3cccc4cc(S(=O)(=O)O)ccc34)c2)cc1 [Compound 31, 4-(N-{3,5-bis[N-(6-sulfonaphthyl)carbamoyl]phenyl}carbamoyl)benzoic acid]
12 | 109.9 | O=C(O)CCC(=O)Nc1cc(C(=O)Nc2cccc3cc(S(=O)(=O)O)ccc23)cc(C(=O)Nc2cccc3cc(S(=O)(=O)O)ccc23)c1 [Compound 32, 3-(N-{3,5-bis[N-(6-sulfonaphthyl)carbamoyl]phenyl}carbamoyl)propanoic acid]
13 | 122.5 | O=C(Nc1cccc2cc(S(=O)(=O)O)ccc12)c1cc(NC(=O)C2CCCCC2)cc(C(=O)Nc2cccc3cc(S(=O)(=O)O)ccc23)c1 [Compound 33, 5-({3-(cyclohexylcarbonylamino)-5-[N-(6-sulfonaphthyl)carbamoyl]phenyl}carbonylamino)naphthalene-2-sulfonic acid]
14 | 119.5 | O=C(Nc1cccc2cc(S(=O)(=O)O)ccc12)c1cc(NC(=O)c2ccco2)cc(C(=O)Nc2cccc3cc(S(=O)(=O)O)ccc23)c1 [Compound 34, 5-({3-(2-furylcarbonylamino)-5-[N-(6-sulfonaphthyl)carbamoyl]phenyl}carbonylamino)naphthalene-2-sulfonic acid]
15 | 105.9 | O=C(Nc1cc(C(=O)Nc2cccc3cc(S(=O)(=O)O)ccc23)cc(C(=O)Nc2cccc3cc(S(=O)(=O)O)ccc23)c1)c1ccncc1 [Compound 35, 5-({3-(4-pyridylcarbonylamino)-5-[N-(6-sulfonaphthyl)carbamoyl]phenyl}carbonylamino)naphthalene-2-sulfonic acid]
16 | 123.2 | O=C(Nc1cc(C(=O)Nc2cccc3cc(S(=O)(=O)O)ccc23)cc(C(=O)Nc2cccc3cc(S(=O)(=O)O)ccc23)c1)c1cccnc1 [Compound 36, 5-({3-(3-pyridylcarbonylamino)-5-[N-(6-sulfonaphthyl)carbamoyl]phenyl}carbonylamino)naphthalene-2-sulfonic acid]
17 | 113.2 | O=C(Cc1ccccc1)Nc1cc(C(=O)Nc2cccc3cc(S(=O)(=O)O)ccc23)cc(C(=O)Nc2cccc3cc(S(=O)(=O)O)ccc23)c1 [Compound 37, 5-({3-(2-phenylacetylamino)-5-[N-(6-sulfonaphthyl)carbamoyl]phenyl}carbonylamino)naphthalene-2-sulfonic acid]
18 | 84.7 | O=C(COc1ccccc1)Nc1cc(C(=O)Nc2cccc3cc(S(=O)(=O)O)ccc23)cc(C(=O)Nc2cccc3cc(S(=O)(=O)O)ccc23)c1 [Compound 38, 5-({3-(2-phenoxyacetylamino)-5-[N-(6-sulfonaphthyl)carbamoyl]phenyl}carbonylamino)naphthalene-2-sulfonic acid]
19 | 136.6 | COc1ccc(CC(=O)Nc2cc(C(=O)Nc3cccc4cc(S(=O)(=O)O)ccc34)cc(C(=O)Nc3cccc4cc(S(=O)(=O)O)ccc34)c2)cc1 [Compound 41, 5-({3-[2-(4-methoxyphenyl)acetylamino]-5-[N-(6-sulfonaphthyl)carbamoyl]phenyl}carbonylamino)naphthalene-2-sulfonic acid]
20 | 116.7 | Cc1ccc(NC(=O)CCC(=O)Nc2cc(C(=O)Nc3cccc4cc(S(=O)(=O)O)ccc34)cc(C(=O)Nc3cccc4cc(S(=O)(=O)O)ccc34)c2)cc1 [Compound 42, 5-[(3-{3-[N-(4-methylphenyl)carbamoyl]propanoylamino}-5-[N-(6-sulfonaphthyl)carbamoyl]phenyl)carbonylamino]naphthalene-2-sulfonic acid]
21 | 124.2 | Cc1ccc(CC(=O)Nc2cc(C(=O)Nc3cccc4cc(S(=O)(=O)O)ccc34)cc(C(=O)Nc3cccc4cc(S(=O)(=O)O)ccc34)c2)cc1 [Compound 43, 5-({3-[2-(4-methylphenyl)acetylamino]-5-[N-(6-sulfonaphthyl)carbamoyl]phenyl}carbonylamino)naphthalene-2-sulfonic acid]
22 | 124.8 | O=C(Cc1cccc(Cl)c1)Nc1cc(C(=O)Nc2cccc3cc(S(=O)(=O)O)ccc23)cc(C(=O)Nc2cccc3cc(S(=O)(=O)O)ccc23)c1 [Compound 44, 5-({3-[2-(3-chlorophenyl)acetylamino]-5-[N-(6-sulfonaphthyl)carbamoyl]phenyl}carbonylamino)naphthalene-2-sulfonic acid]
23 | 114.2 | O=C(Nc1cccc2cc(S(=O)(=O)O)ccc12)c1cc(NS(=O)(=O)c2ccccc2)cc(C(=O)Nc2cccc3cc(S(=O)(=O)O)ccc23)c1 [Compound 48, 5-({3-[(phenylsulfonyl)amino]-5-[N-(6-sulfonaphthyl)carbamoyl]phenyl}carbonylamino)naphthalene-2-sulfonic acid]
24 | 109.3 | O=C(Nc1cccc2cc(S(=O)(=O)O)ccc12)c1cc(NS(=O)(=O)c2ccc3ccccc3c2)cc(C(=O)Nc2cccc3cc(S(=O)(=O)O)ccc23)c1 [Compound 49, 5-({3-[(2-naphthylsulfonyl)amino]-5-[N-(6-sulfonaphthyl)carbamoyl]phenyl}carbonylamino)naphthalene-2-sulfonic acid]
25 | 123.8 | O=C(Nc1cccc2cc(S(=O)(=O)O)ccc12)c1cc(NS(=O)(=O)c2ccc(Cl)cc2)cc(C(=O)Nc2cccc3cc(S(=O)(=O)O)ccc23)c1 [Compound 50, 5-[(3-{[(4-chlorophenyl)sulfonyl]amino}-5-[N-(6-sulfonaphthyl)carbamoyl]phenyl)carbonylamino]naphthalene-2-sulfonic acid]

From patent US6653321B1, “Naphthylsulfonic acids and related compounds as glucose uptake agonists” (Telik, Inc., priority 1999, dated 2003)
